We go through 48 compounds from patent US8916565B2, “Pyrrolopyrazine-spirocyclic piperidine amides as modulators of ion channels” (priority 2011, dated 2014).

The target in this assay is human NaV subtype, like NaV 1.7 (Homo sapiens, UniProt Q15858). In words: E-VIPR optical membrane potential assay with electrical stimulation. The assay is classed as cell-based. Conditions: active against one or more sodium channels; Table 3 does not name the assay or NaV subtype; read-out: Binned Activity Data (IC50).
Sequence of human NaV subtype, like NaV 1.7 (Q15858 whole entry): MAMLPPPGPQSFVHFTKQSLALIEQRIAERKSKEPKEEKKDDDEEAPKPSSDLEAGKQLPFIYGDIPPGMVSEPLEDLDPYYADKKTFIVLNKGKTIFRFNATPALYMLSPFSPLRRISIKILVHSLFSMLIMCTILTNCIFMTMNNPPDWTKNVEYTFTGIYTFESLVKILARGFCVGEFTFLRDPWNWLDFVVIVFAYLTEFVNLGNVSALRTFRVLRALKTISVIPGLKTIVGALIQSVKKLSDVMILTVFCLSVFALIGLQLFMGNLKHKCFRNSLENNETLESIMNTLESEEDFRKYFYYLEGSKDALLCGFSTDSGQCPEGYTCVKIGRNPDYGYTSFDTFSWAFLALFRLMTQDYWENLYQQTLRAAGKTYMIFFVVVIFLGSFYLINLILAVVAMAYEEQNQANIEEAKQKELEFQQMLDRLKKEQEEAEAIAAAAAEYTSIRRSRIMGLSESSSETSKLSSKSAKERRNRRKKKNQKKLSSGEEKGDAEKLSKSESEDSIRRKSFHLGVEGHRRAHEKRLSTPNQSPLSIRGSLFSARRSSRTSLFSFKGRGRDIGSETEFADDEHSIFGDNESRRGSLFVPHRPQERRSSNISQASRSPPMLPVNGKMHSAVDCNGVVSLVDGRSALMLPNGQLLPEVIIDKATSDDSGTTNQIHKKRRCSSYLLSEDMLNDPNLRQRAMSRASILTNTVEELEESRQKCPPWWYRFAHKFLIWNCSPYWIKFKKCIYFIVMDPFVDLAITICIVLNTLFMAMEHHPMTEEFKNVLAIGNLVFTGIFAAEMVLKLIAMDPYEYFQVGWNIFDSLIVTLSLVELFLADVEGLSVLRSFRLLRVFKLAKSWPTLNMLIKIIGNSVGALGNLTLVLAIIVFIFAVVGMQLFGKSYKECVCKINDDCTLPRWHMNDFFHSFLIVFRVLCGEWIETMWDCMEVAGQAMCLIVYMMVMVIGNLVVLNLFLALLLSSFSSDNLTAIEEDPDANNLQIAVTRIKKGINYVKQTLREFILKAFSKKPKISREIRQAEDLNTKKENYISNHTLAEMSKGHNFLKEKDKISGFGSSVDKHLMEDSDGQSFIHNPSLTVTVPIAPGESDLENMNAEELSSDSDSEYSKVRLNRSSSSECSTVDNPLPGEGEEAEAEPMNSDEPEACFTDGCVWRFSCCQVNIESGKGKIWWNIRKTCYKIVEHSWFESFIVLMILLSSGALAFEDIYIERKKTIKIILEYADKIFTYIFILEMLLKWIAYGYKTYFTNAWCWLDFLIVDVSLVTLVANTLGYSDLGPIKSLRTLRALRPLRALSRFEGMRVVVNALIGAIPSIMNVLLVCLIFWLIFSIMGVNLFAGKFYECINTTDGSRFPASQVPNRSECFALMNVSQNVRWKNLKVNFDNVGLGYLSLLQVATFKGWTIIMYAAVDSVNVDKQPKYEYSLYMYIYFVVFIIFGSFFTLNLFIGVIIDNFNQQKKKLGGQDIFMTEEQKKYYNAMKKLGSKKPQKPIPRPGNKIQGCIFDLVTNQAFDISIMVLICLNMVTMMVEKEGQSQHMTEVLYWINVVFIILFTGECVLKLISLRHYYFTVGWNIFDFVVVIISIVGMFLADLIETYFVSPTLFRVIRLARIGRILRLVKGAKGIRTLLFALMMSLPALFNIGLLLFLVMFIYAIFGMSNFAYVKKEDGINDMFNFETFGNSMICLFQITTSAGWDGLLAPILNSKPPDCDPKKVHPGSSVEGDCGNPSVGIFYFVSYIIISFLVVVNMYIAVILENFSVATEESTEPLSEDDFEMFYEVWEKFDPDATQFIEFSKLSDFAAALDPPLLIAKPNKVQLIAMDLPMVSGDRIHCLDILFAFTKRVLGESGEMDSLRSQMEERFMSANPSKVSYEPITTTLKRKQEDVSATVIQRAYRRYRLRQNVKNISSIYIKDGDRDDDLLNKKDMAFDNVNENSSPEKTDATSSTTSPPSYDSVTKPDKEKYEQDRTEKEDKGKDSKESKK
For orientation: IC50 means the concentration needed to halve the response being measured. As for `CN1CCn2c(C(F)(F)F)ccc2C12CCN(C(=O)c1ccc(-c3ccccc3)cc1)CC2` [Compound 659], the half-maximal inhibitory concentration (IC50) was more than 5 µM.

On to `CCN(C)c1cc(C)nc2c(C(=O)N3CCC4(CC3)c3ccc(C(F)(F)F)n3CCN4C)cnn12` [Compound 660], for which the IC50 is not above 2 µM.

As for `CC(C)CCOc1ccc(C(=O)N2CCC3(CC2)c2ccc(C(=O)C(C)(C)C)n2CCN3C)cc1` [Compound 661], the IC50 is not above 2 µM. On to `COCCN1CCn2c(C(F)(F)F)ccc2C12CCN(C(=O)c1ccccc1OC(F)(F)F)CC2` [Compound 662], for which the IC50 was not above 2 µM. Under `COc1ccc(C(=O)N2CCC3(CC2)c2ccc(C(=O)C(F)(F)F)n2CCN3C)cc1C` [Compound 663] stands not above 2 µM; under `CC(C)Oc1ccc(C(=O)N2CCC3(CC2)c2ccc(C(F)(F)C(F)(F)F)n2CCN3C)cc1Cl` [Compound 664], not above 2 µM. Under `CC(=O)c1ccc2n1CCN(C)C21CCN(C(=O)c2ccc(COc3ccccc3)cc2)CC1` [Compound 665] stands not above 2 µM; under `CN1CCn2c(C(F)(F)F)cc(F)c2C12CCN(C(=O)c1ccc(S(=O)(=O)NC3CC3)cc1)CC2` [Compound 666], not above 2 µM. Next, `COc1cc(C(=O)N2CCC3(CC2)NC(C)(C)Cn2c(C(F)(F)F)ccc23)ccc1OC(C)(C)C` [Compound 667]: not above 2 µM. Consider `CCc1ccc(C(=O)N2CCC3(CC2)c2c(F)cc(C(F)(F)F)n2CCN3C)cc1OC` [Compound 668], for which the half-maximal inhibitory concentration (IC50) is not above 2 µM. Next, `C[C@H]1Cn2c(C(=O)C(F)(F)F)ccc2C2(CCN(C(=O)c3ccc(S(=O)(=O)NC4CC4)cc3)CC2)N1C` [Compound 669]: not above 2 µM; `CN1CCn2c(Cl)ccc2C12CCN(C(=O)c1ccc(S(=O)(=O)C(F)F)cc1)CC2` [Compound 670]: more than 5 µM. Consider `CCCN(CCC)S(=O)(=O)c1ccc(C(=O)N2CCC3(CC2)c2ccc(C(=O)C(F)(F)F)n2CCN3C)cc1` [Compound 671], for which the IC50 was not above 2 µM. Under `Cc1cc(C(=O)N2CCC3(CC2)c2c(F)cc(C(F)(F)F)n2CCN3C)ccc1OC(C)C` [Compound 672] stands not above 2 µM. `Cc1cc(C)n2ncc(C(=O)N3CCC4(CC3)c3ccc(C(F)(F)F)n3CCN4C)c2n1` [Compound 673]: the 50% inhibitory concentration (IC50) is not above 2 µM. Under `CC(C)Oc1ccc(C(=O)N2CCC3(CC2)c2ccc(C(=O)C(C)C)n2CCN3C)cc1Cl` [Compound 674] stands not above 2 µM; under `COc1c(C)cccc1C(=O)N1CCC2(CC1)c1ccc(C(=O)C(F)(F)F)n1C[C@H](C)N2C` [Compound 675], not above 2 µM; under `CC(C)Oc1ccc(C(=O)N2CCC3(CC2)c2ccc(C(=O)C(F)(F)F)n2CCN3C)cc1C(F)(F)F` [Compound 676], not above 2 µM. `COc1cc(C(=O)N2CCC3(CC2)c2ccc(C(F)(F)F)n2C[C@@H](C)N3C)ccc1OC(C)C` [Compound 677]: the half-maximal inhibitory concentration (IC50) was more than 5 µM.

On to `CC(C)Oc1ccc(C(=O)N2CCC3(CC2)c2ccc(Cl)n2CCN3C)cc1CO` [Compound 678], for which the half-maximal inhibitory concentration (IC50) lay within 2 to 5 µM. For the compound `CN1CCn2c(Cl)ccc2C12CCN(C(=O)c1cccc3cccnc13)CC2` [Compound 679], the IC50 was in the range of 2 to 5 µM. Next, `CN1CCn2c(C(=O)C(C)(C)C)ccc2C12CCN(C(=O)c1ccc(S(=O)(=O)C(C)(C)C)cc1)CC2` [Compound 680]: not above 2 µM; `CC(=O)c1ccc2n1CCN(C)C21CCN(C(=O)c2ccc(OCC(C)(C)O)c(C)c2)CC1` [Compound 681]: 2 to 5 µM. Under `Cc1cc(C(=O)N2CCC3(CC2)c2ccc(C(=O)C(C)(C)C)n2CCN3C)ccc1S(C)(=O)=O` [Compound 682] stands more than 5 µM; under `COC(=O)N1CCn2c(C(F)(F)F)ccc2C12CCN(C(=O)c1ccc(C(C)(C)O)c(C)c1)CC2` [Compound 683], not above 2 µM. Turning to `CCN(CC)c1ncccc1C(=O)N1CCC2(CC1)c1ccc(C(F)(F)F)n1CCN2C` [Compound 684], the IC50 is more than 5 µM. Next, `CN1CCn2c(C(=O)C3(C)CC3)ccc2C12CCN(C(=O)c1ccc(O)c(C(F)(F)F)c1)CC2` [Compound 685]: not above 2 µM; `COc1cc(C(=O)N2CCC3(CC2)NC(C)(C)Cn2c(C(=O)C(F)(F)F)ccc23)ccc1OCCC(C)C` [Compound 686]: not above 2 µM. In the case of `COc1cc(C(=O)N2CCC3(CC2)c2c(Cl)cc(C(F)(F)F)n2CCN3C)ccc1COCC(F)(F)F` [Compound 687], the IC50 is not above 2 µM. Next, `CN1CCn2c(C(=O)C(F)(F)F)ccc2C12CCN(C(=O)c1ccc(CC(C)(C)O)cc1)CC2` [Compound 688]: not above 2 µM; `CN1CCn2c(C(=O)C3(C)CC3)ccc2C12CCN(C(=O)c1ccc(S(=O)(=O)C(C)(C)C)cc1)CC2` [Compound 689]: more than 5 µM; `COc1cc(C(=O)N2CCC3(CC2)c2ccc(C(F)(F)F)n2CCN3C2CC2)ccc1OC(C)C` [Compound 690]: not above 2 µM. Consider `CC(=O)c1ccc2n1CCN(C)C21CCN(C(=O)c2ccc(OC(C)C)c(C)n2)CC1` [Compound 691], for which the IC50 is not above 2 µM.

Consider `CC1Cn2c(C(F)(F)F)ccc2C2(CCN(C(=O)c3ccc(OC(C)C)c(F)c3)CC2)N1` (stereo not drawn) [Compound 692], for which the IC50 is not above 2 µM. For `COc1ccc(C(=O)N2CCC3(CC2)c2ccc(C(=O)c4ccccc4)n2CCN3C)cc1C` [Compound 694], the IC50 fell in the range of 2 to 5 µM. As for `CC(C)Oc1ccc(C(=O)N2CCC3(CC2)c2ccc(C(=O)C(F)(F)F)n2C[C@H](C)N3C)c(F)c1` [Compound 695], the IC50 was not above 2 µM.

On to `CC(C)Oc1ccc(C(=O)N2CCC3(CC2)c2ccc(Cl)n2CCN3C)cc1` [Compound 696], for which the IC50 is more than 5 µM.

`COc1ccc(C(=O)N2CCC3(CC2)c2ccc(C(=O)C(F)(F)F)n2CCN3C)cc1Cl` [Compound 697]: the IC50 is not above 2 µM. Under `CCCOc1ccc(C(=O)N2CCC3(CC2)c2ccc(Cl)n2CCN3C)cc1OC` [Compound 698] stands 2 to 5 µM. With `CCCCOc1ccc(C(=O)N2CCC3(CC2)c2ccc(C(C)=O)n2CCN3C)cc1OC` [Compound 699], the IC50 is not above 2 µM. Next, `C[C@H]1Cn2c(C(=O)C(F)(F)F)ccc2C2(CCN(C(=O)c3ccc(O)c(Cl)c3)CC2)N1C` [Compound 700]: not above 2 µM. Next, `COCCN1CCn2c(C(F)(F)F)ccc2C12CCN(C(=O)c1ccc(C(C)(C)O)cc1)CC2` [Compound 701]: not above 2 µM; `C[C@H]1Cn2c(C(=O)C(F)(F)F)ccc2C2(CCN(C(=O)c3ccc(S(=O)(=O)C4CC4)cc3)CC2)N1C` [Compound 702]: not above 2 µM; `CC(=O)c1ccc2n1CCN(C)C21CCN(C(=O)c2ccc(C(C)(C)O)c(F)c2)CC1` [Compound 703]: more than 5 µM. Next, `CCC(=O)c1ccc2n1CCN(C)C21CCN(C(=O)c2ccc(OC(C)C)c(C)c2)CC1` [Compound 704]: not above 2 µM; `COc1cc(C(=O)N2CCC3(CC2)NC(C)(C)Cn2c(C(=O)C(F)(F)F)ccc23)ccc1C(C)(C)C` [Compound 705]: not above 2 µM; `COc1cc(C(=O)N2CCC3(CC2)c2ccc(C(F)(F)F)n2CCN3CC(F)F)ccc1OC(C)C` [Compound 706]: not above 2 µM. For the compound `CC1(C)Cn2c(C(=O)C(F)(F)F)ccc2C2(CCN(C(=O)c3ccc(-c4ccccc4)cn3)CC2)N1` [Compound 707], the concentration for half-maximal inhibition (IC50) was not above 2 µM.
